Values of other authors, collected in US20220175673A1, “SURGICAL DEVICE” (Saint Anthony Biomedical, LLC, priority 2017, published 2022).

What was measured:
[1] = test system: Streptococcus mutans, S. pyogenes, S. salivarius, S. sanguis; conditions: Gram-positive aerobic bacteria
[2] = test system: Staphylococcus aureus, S. epidermidis, S. haemolyticus, S. hominis, S. simulans; conditions: both oxacillin-resistant and oxacillin-susceptible staphylococci
[3] = test system: Enterococcus, including E. faecalis and E. faecium; conditions: vancomycin-susceptible and vancomycin-resistant strains
Veillonella = conditions: compared with other anaerobic bacteria
[4] = test system: Candida albicans, C. dubliniensis, C. glabrata, C. gullermondii, C. pseudotropicalis, C. krusei, C. lusitaniae, C. tropicalis
[5] = test system: Epidermophyton occosum, Microsporum gypseum, M canis, Trichophyton mentagrophytes
[6] = test system: CMV, HIV, HSV-1, HSV-2, influenza virus, parainfluenza virus, variola virus; conditions: viruses with a lipid component in outer coat or an outer envelope
[7] = test system: MDR isolates (MRSA, E. faecium, K pneumoniae, E. aerogenes, E. coli and A. baumani); conditions: 0.05% CHG, 1-minute exposure

[H]/N=C(\N/C(=N/[H])NCCCCCCNC(=N)NC(=N)Nc1ccc(Cl)cc1)Nc1ccc(Cl)cc1 [Chlorhexidine, chlorhexidine]
activity [1]: highly active
activity [2]: active
activity [3]: active
activity (Veillonella): less active
activity [4]: some activity
activity [5]: some activity
antiviral activity [6]: appears to have antiviral activity
effect on keratinocytes (keratinocytes): cytotoxic effect
effect on wound healing (wound healing): inhibitory effect

N=C(NCCCCCCNC(=N)NC(=N)Nc1ccc(Cl)cc1)NC(=N)Nc1ccc(Cl)cc1.O=C(O)[C@H](O)[C@@H](O)[C@H](O)[C@H](O)CO.O=C(O)[C@H](O)[C@@H](O)[C@H](O)[C@H](O)CO [CHG, chlorhexidine gluconate]
log-reduction in MDR isolates [7]: greater than or equal to 99.99%
